Values quoted from earlier work as cited in patent US9913866B2, “Selective cell targeting using adenovirus and chemical dimers” (priority 2012, dated 2018).

Tests used:
FKBP and wt FRB domain = FKBP and wt FRB domain (Homo sapiens, UniProt P62942)
[1] = biological target: FKBP and a mutant FRB domain (mTOR mutation T2098L) (Homo sapiens, UniProt P42345+P62942, T2098L)
Sequence of FKBP and a mutant FRB domain (mTOR mutation T2098L) (P42345 2012-2144 T2098L limits assumed): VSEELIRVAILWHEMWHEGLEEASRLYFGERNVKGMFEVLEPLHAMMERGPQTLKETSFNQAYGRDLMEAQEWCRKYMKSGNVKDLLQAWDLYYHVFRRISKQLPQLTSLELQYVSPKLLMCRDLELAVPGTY
Sequence of FKBP and a mutant FRB domain (mTOR mutation T2098L) (P62942 2-108 limits assumed): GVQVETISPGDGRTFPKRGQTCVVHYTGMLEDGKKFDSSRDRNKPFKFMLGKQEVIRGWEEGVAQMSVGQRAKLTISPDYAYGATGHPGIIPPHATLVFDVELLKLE

Sequence of FKBP and wt FRB domain (P62942 2-108 limits assumed): as above

For `CO[C@H]1[C@@H](O)[C@H](C)C[C@H](C)/C=C/C=C/C=C(\C)[C@@H](c2c[nH]c3c(C)cccc23)C[C@@H]2CC[C@@H](C)[C@@](O)(O2)C(=O)C(=O)N2CCCC[C@H]2C(=O)O[C@H]([C@H](C)C[C@@H]2CC[C@@H](O)[C@H](OC)C2)C[C@H](O)[C@H](C)/C=C(\C)[C@H]1O` [AP21967], the heterodimer formation (FKBP and wt FRB domain) is given as “not with the wt FRB domain” and the heterodimer formation [1] is given as “able to form stable heterodimers”.
